Columns and labels:
[1] = Hydrolytic degradation in mixtures of ketonic or alcoholic solvents and water; type: physicochemical; conditions: forms fosinoprilate, increases with time, higher temperature and higher water content
Excerpt: This hydrolytic degradation increases with time and with higher temperature and higher water content of the solvent.

[2] = Hydration of the solid under air exposure; conditions: form B from methanol solutions evaporated in an atomizer at room temperature
[3] = polymorph A versus polymorph B; as stated in EP-B-0442378; cited from earlier work

CCC(=O)O[C@@H](O[P@](=O)(CCCCc1ccccc1)CC(=O)N1C[C@H](C2CCCCC2)C[C@H]1C(=O)[O-])C(C)C.[Na+] [sodium fosinopril, sodium salt of fosinopril]
hydrolytic stability in solution [1]: undergoes hydrolysis

CCC(=O)O[C@@H](O[P@](=O)(CCCCc1ccccc1)CC(=O)N1C[C@H](C2CCCCC2)C[C@H]1C(=O)[O-])C(C)C.[Na+] [form B, sodium salt of fosinopril]
hydration under air exposure [2]: spontaneously hydrated under air exposure

CCC(=O)O[C@@H](O[P@](=O)(CCCCc1ccccc1)CC(=O)N1C[C@H](C2CCCCC2)C[C@H]1C(=O)[O-])C(C)C.[Na+] [polymorph A, sodium salt of fosinopril]
relative thermodynamic stability of polymorphs [3]: more stable one from the thermodynamic point of view

Source: patent US20050010054A1, “Preparation of crystalline polymorphs of fosinopril sodium” (priority 2001, published 2005)
